Assay [1] has as its system adenosine diphosphate induced platelet aggregation (human protein rich plasma). Briefly: Inhibition of Platelet Aggregation - In Vitro, adenosine diphosphate induced. Format: cell-based. Details: key: (-): Inhibition; (+): No inhibition. An excerpt:
(§1) It is well known that platelet aggregation inhibitors may be useful as anti-thrombotic drugs. Inhibition of platelet aggregation can be conveniently measured in vitro by monitoring changes in optical density and/or light transmission in platelet rich plasma upon addition of suitable aggregating agents such as adenosine diphosphate, epinephrine, thrombin or collagen. Alternatively, platelet aggregation can be measured in vitro using platelet rich plasma obtained at various time intervals from animals given inhibitors by an oral or parenteral route.
(§2) Human […] is incubated with modified Tyrode's solution in a proportion of 40-50% human […]. The test compounds are added at varying concentrations and after 5 minutes incubation, an aggregating agent such as adenosine diphosphate or collagen is added. The change in optical density (light transmission) is monitored by eye and inhibition is recorded as a (-) or lack of inhibition is recorded as a (+). Test compounds are considered active if they inhibit adenosine diphosphate or collagen induced aggregation at a concentration of 25 mcg/ml or less within 5-10 minutes.

In assay [2] the test system is collagen induced platelet aggregation (human protein rich plasma). Nature of the assay: Inhibition of Platelet Aggregation - In Vitro, collagen induced. It is filed as cell-based. Details: key: (-): Inhibition; (+): No inhibition.
Excerpt: as §1, §2

The test system of assay [3] is bronchospasms elicited by 5-hydroxytryptamine. Briefly: Bronchodilator activity against 5-hydroxytryptamine bronchospasm (Konzett procedure). It is filed as in vivo, guinea pigs. The following applies: Cavia porcellus; guinea pig, three logarithmic cumulative intravenous doses. As to the method:
(§3) Bronchodilator activity is determined in guinea pigs against bronchospasms elicited by intravenous injections of 5-hydroxytryptamine, histamine or acetylcholine by the Konzett procedure. [See J. Lulling, P. Lievens, F. El Sayed and J. Prignot, Arzeneimittel-Forschung, 18, 995 (1968).] In Table B bronchodilator activity for representative compounds of this invention against one or more of the three spasmogenic agents is expressed as an ED50 determined from the results obtained with three logarithmic cumulative intravenous doses.

For assay [4], the system named is bronchospasms elicited by histamine. Briefly: Bronchodilator activity against histamine bronchospasm (Konzett procedure). The following applies: Cavia porcellus; guinea pig, three logarithmic cumulative intravenous doses. It is filed as in vivo, guinea pigs. As to the method: as §3
For assay [5], the system named is bronchospasms elicited by acetylcholine. Nature of the assay: Bronchodilator activity against acetylcholine bronchospasm (Konzett procedure). It is filed as in vivo, guinea pigs. The conditions noted are these: Cavia porcellus; guinea pig, three logarithmic cumulative intravenous doses. As to the method:
as §3

In the case of `N#CC1CC(=O)C(CC=CCCCC(=O)O)C1C=CC1(O)CCCCC1` (stereo not drawn) [nat(and ent)-11α/βCyano-15-hydroxy-9-ozxo-15, 16-tetramethylene-17,18,19,20-tetranor-5-cis-13-trans-prostadienoic Acid], the “Inhibition of platelet aggregation, adenosine diphosphate” value in assay [1] (drug concentration 2.5 μg/ml), in assay [1] (drug concentration 25 μg/ml) and in assay [1] (drug concentration 250 μg/ml) was “(-)” each time. Also, the “Inhibition of platelet aggregation, collagen” value in assay [2] (drug concentration 25 μg/ml) and in assay [2] (drug concentration 250 μg/ml) was “(-)” throughout. Moreover, the ED50 in assay [3] is 1.81 µg/kg; in assay [4], 0.367 µg/kg; in assay [5] it was 2.74 µg/kg.
For `O=C(O)CCC/C=C\C[C@@H]1C(=O)C=C[C@H]1/C=C/C1(O)CCCCC1` (relative stereo) [nat-(and ent)-15-hydroxy-9-oxo-15,16-tetramethylene-17,18,19,20-tetranor-5-cis-10,13-trans-prostatrienoic Acid], the “Inhibition of platelet aggregation, adenosine diphosphate” value is “(+)” in assay [1] (drug concentration 25 μg/ml) and “(-)” in assay [1] (drug concentration 250 μg/ml). Further, the “Inhibition of platelet aggregation, collagen” value is “(+)” in assay [2] (drug concentration 25 μg/ml) and “(-)” in assay [2] (drug concentration 250 μg/ml). For the same molecule, the 50% effective dose (ED50) is > 3.2 µg/kg in assay [3], 0.632 µg/kg in assay [4] and > 3.2 µg/kg in assay [5].

The values are drawn from patent US4202988A, “Prostenoic acids and esters” (American Cyanamid Company, priority 1977, dated 1980).
